pEC50, pIC50: −log10 of the molar value. Read-outs that look alike come from different tables or passages of the source.
Key:
HCV genotype 1b replicon = assay: HCV replicon assay, genotype 1b replicon EC50; format: cell-based, Hepatitis C virus; details: Hepatitis C virus, read-out: EC50 [gt-1b]
Summary of the method: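 Compound dilution series incubated 24-48 h, G418 absent, with HCV genotype 1b replicon cell lines kept under G418 selection beforehand. Luciferase signal or replicon RNA, by ^32P hybridization/protection or TaqMan normalized to cyclophilin A, was measured after washing and lysis. Four-parameter fitting against DMSO control gave EC50.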

[1] = biological target: HCV NS3/4A protease genotype 1b (Hepatitis C virus genotype 1b, UniProt P26663); assay: HCV NS3/4A protease time-resolved fluorescence (TRF) assay, Ki against genotype 1b; format: biochemical; details: for pIC50: IC50 [gt-1b], NS3/4A protease TRF assay, genotype 1b enzyme 0.2 nM; for IC50: IC50 [gt-1b] (nM), NS3/4A genotype 1b, enzyme 0.2 nM
Summary of the method: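 Enzyme 0.2 nM 1b / 0.4 nM A156T / 0.025 nM 3a; 30 min preinc. w/ cpd; 25 nM TRF peptide; 2.5 h RT; ex 340/em 615 time-delayed; 4-param IC50 → Ki = IC50/(1+[S]/KM).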

[2] = HCV replicon, genotype 1b, K+ salt

Cc1ccc2nc(C(F)(F)F)c3c(c2c1)CC[C@]1(C[C@H]2C(=O)N[C@]4(C(=O)NS(=O)(=O)C5(C)CC5)C[C@H]4/C=C\CCCCC[C@H](NC(=O)OCC(C)C)C(=O)N2C1)O3 [Example 390, 2-methylpropyl [(2R,6S,12Z,13aS,14aR,16aS)-9′-methyl-14a-{[(1-methylcyclopropyl)sulfonyl]carbamoyl}-5,16-dioxo-5′-(trifluoromethyl)-1,1′,2′,5,6,7,8,9,10,11,13a,14,14a,15,16,16a-hexadecahydrospiro[cyclopropa[e]pyrrolo[1,2-a][1,4]diazacyclopentadecine-2,3′-pyrano[2,3-c]quinolin]-6-yl]carbamate]
pEC50 (HCV genotype 1b replicon; HCV replicon, genotype 1b): 7.81 | pIC50 [1]: 10.82

COCC1(S(=O)(=O)NC(=O)[C@@]23C[C@H]2/C=C\CCCCC[C@H](NC(=O)OCC(F)F)C(=O)N2C[C@@]4(CCc5c(c(C(F)(F)F)nc6ccc(OC)cc56)O4)C[C@H]2C(=O)N3)CC1 [Example 497, 2,2-difluoroethyl [(2R,6S,12Z,13aS,14aR,16aS)-9′-methoxy-14a-({[1-(methoxymethyl)cyclopropyl]sulfonyl}carbamoyl)-5,16-dioxo-5′-(trifluoromethyl)-1,1′,2′,5,6,7,8,9,10,11,13a,14,14a,15,16,16a-hexadecahydrospiro[cyclopropa[e]pyrrolo[1,2-a][1,4]diazacyclopentadecine-2,3′-pyrano[2,3-c]quinolin]-6-yl]carbamate]
pEC50 (HCV genotype 1b replicon; HCV replicon, genotype 1b): 8.71 | pIC50 [1]: 10.85

Cc1nc2ccc(Cl)cc2c2c1O[C@]1(CC2)C[C@H]2C(=O)N[C@]3(C(=O)NS(=O)(=O)C4(C)CC4)C[C@H]3/C=C\CCCCC[C@H](NC(=O)OCC3CCC3)C(=O)N2C1 [Example 221, cyclobutylmethyl [(2R,6S,12Z,13aS,14aR,16aS)-9′-chloro-5′-methyl-14a-{[(1-methylcyclopropyl)sulfonyl]carbamoyl}-5,16-dioxo-1,1′,2′,5,6,7,8,9,10,11,13a,14,14a,15,16,16a-hexadecahydrospiro[cyclopropa[e]pyrrolo[1,2-a][1,4]diazacyclopentadecine-2,3′-pyrano[2,3-c]quinolin]-6-yl]carbamate]
pEC50 (HCV genotype 1b replicon; genotype 1b replicon): 7.94 | IC50 [1]: 0.008 nM

CCCOC(=O)N[C@H]1CCCCC/C=C\[C@@H]2C[C@@]2(C(=O)NS(=O)(=O)C2(C)CC2)NC(=O)[C@@H]2C[C@]3(CCc4c(c(C5CC5)nc5ccc(OC)cc45)O3)CN2C1=O [Example 437, propyl [(2R,6S,12Z,13aS,14aR,16aS)-5′-cyclopropyl-9′-methoxy-14a-{[(1-methylcyclopropyl)sulfonyl]carbamoyl}-5,16-dioxo-1,1′,2′,5,6,7,8,9,10,11,13a,14,14a,15,16,16a-hexadecahydrospiro[cyclopropa[e]pyrrolo[1,2-a][1,4]diazacyclopentadecine-2,3′-pyrano[2,3-c]quinolin]-6-yl]carbamate]
pEC50 (HCV genotype 1b replicon; [2]): 9.00 | pIC50 ([1]; K+ salt): 10.80

Cc1ccc2nc(C(F)(F)F)c3c(c2c1)CC[C@]1(C[C@H]2C(=O)N[C@]4(C(=O)NS(=O)(=O)C5(C)CC5)C[C@H]4/C=C\CCCCC[C@H](NC(=O)OC(C)(C)C)C(=O)N2C1)O3 [Example 389, tert-butyl [(2R,6S,12Z,13aS,14aR,16aS)-9′-methyl-14a-{[(1-methylcyclopropyl)sulfonyl]carbamoyl}-5,16-dioxo-5′-(trifluoromethyl)-1,1′,2′,5,6,7,8,9,10,11,13a,14,14a,15,16,16a-hexadecahydrospiro[cyclopropa[e]pyrrolo[1,2-a][1,4]diazacyclopentadecine-2,3′-pyrano[2,3-c]quinolin]-6-yl]carbamate]
pEC50 (HCV genotype 1b replicon; HCV replicon, genotype 1b): 8.58 | pIC50 [1]: 10.96

Cc1nc2ccc(Cl)cc2c2c1O[C@]1(CC2)C[C@H]2C(=O)N[C@]3(C(=O)NS(=O)(=O)C4(C)CC4)C[C@H]3/C=C\CCCCC[C@H](NC(=O)OC(C)C)C(=O)N2C1 [Example 183, propan-2-yl [(2R,6S,12Z,13aS,14aR,16aS)-9′-chloro-5′-methyl-14a-{[(1-methylcyclopropyl)sulfonyl]carbamoyl}-5,16-dioxo-1,1′,2′,5,6,7,8,9,10,11,13a,14,14a,15,16,16a-hexadecahydrospiro[cyclopropa[e]pyrrolo[1,2-a][1,4]diazacyclopentadecine-2,3′-pyrano[2,3-c]quinolin]-6-yl]carbamate]
pEC50 (HCV genotype 1b replicon; genotype 1b replicon, K+ salt): 8.79 | IC50 ([1]; K+ salt): 0.008 nM

Cc1ccc2nc(C(F)(F)F)c3c(c2c1)CC[C@]1(C[C@H]2C(=O)N[C@]4(C(=O)NS(=O)(=O)C5(C)CC5)C[C@H]4/C=C\CCCCC[C@H](NC(=O)OCCCN4CCCCC4)C(=O)N2C1)O3 [Example 423, 3-(piperidin-1-yl)propyl [(2R,6S,12Z,13aS,14aR,16aS)-9′-methyl-14a-{[(1-methylcyclopropyl)sulfonyl]carbamoyl}-5,16-dioxo-5′-(trifluoromethyl)-1,1′,2′,5,6,7,8,9,10,11,13a,14,14a,15,16,16a-hexadecahydrospiro[cyclopropa[e]pyrrolo[1,2-a][1,4]diazacyclopentadecine-2,3′-pyrano[2,3-c]quinolin]-6-yl]carbamate]
pEC50 (HCV genotype 1b replicon; HCV replicon, genotype 1b): 7.72 | pIC50 [1]: 10.32

COc1ccc2nc(C3CCC3)c3c(c2c1)CC[C@]1(C[C@H]2C(=O)N[C@]4(C(=O)NS(=O)(=O)C5(C)CC5)C[C@H]4/C=C\CCCCC[C@H](NC(=O)OC4CCCC4)C(=O)N2C1)O3 [Example 170, cyclopentyl [(2R,6S,12Z,13aS,14aR,16aS)-5′-cyclobutyl-9′-methoxy-14a-{[(1-methylcyclopropyl)sulfonyl]carbamoyl}-5,16-dioxo-1,1′,2′,5,6,7,8,9,10,11,13a,14,14a,15,16,16a-hexadecahydrospiro[cyclopropa[e]pyrrolo[1,2-a][1,4]diazacyclopentadecine-2,3′-pyrano[2,3-c]quinolin]-6-yl]carbamate]
pEC50 (HCV genotype 1b replicon; genotype 1b replicon): 8.58 | IC50 [1]: 0.013 nM

Cc1nc2ccccc2c2c1O[C@]1(CC2)C[C@H]2C(=O)N[C@]3(C(=O)NS(=O)(=O)C4(C)CC4)C[C@H]3/C=C\CCCCC[C@H](Nc3cc(C(F)(F)F)ccn3)C(=O)N2C1 [Example 414, (2R,6S,12Z,13aS,14aR,16aS)-5′-methyl-N-[(1-methylcyclopropyl)sulfonyl]-5,16-dioxo-6-{[4-(trifluoromethyl)pyridin-2-yl]amino}-1,1′,2′,6,7,8,9,10,11,13a,14,15,16,16a-tetradecahydrospiro[cyclopropa[e]pyrrolo[1,2-a][1,4]diazacyclopentadecine-2,3′-pyrano[2,3-c]quinoline]-14a(5H)-carboxamide]
pEC50 (HCV genotype 1b replicon; HCV replicon, genotype 1b): 8.29 | pIC50 [1]: 10.33

CCCOC(=O)N[C@H]1CCCCC/C=C\[C@@H]2C[C@@]2(C(=O)NS(=O)(=O)C2(C)CC2)NC(=O)[C@@H]2C[C@]3(CCc4c(c(C(F)F)nc5ccc(OC)cc45)O3)CN2C1=O [Example 475, propyl [(2R,6S,12Z,13aS,14aR,16aS)-5′-(difluoromethyl)-9′-methoxy-14a-{[(1-methylcyclopropyl)sulfonyl]carbamoyl}-5,16-dioxo-1,1′,2′,5,6,7,8,9,10,11,13a,14,14a,15,16,16a-hexadecahydrospiro[cyclopropa[e]pyrrolo[1,2-a][1,4]diazacyclopentadecine-2,3′-pyrano[2,3-c]quinolin]-6-yl]carbamate]
pEC50 (HCV genotype 1b replicon; [2]): 8.62 | pIC50 ([1]; K+ salt): 11.30

CCOC(=O)N[C@H]1CCCCC/C=C\[C@@H]2C[C@@]2(C(=O)NS(=O)(=O)C2(C)CC2)NC(=O)[C@@H]2C[C@]3(CCc4c(c(C5CC5)nc5ccc(OC)cc45)O3)CN2C1=O [Example 436, ethyl [(2R,6S,12Z,13aS,14aR,16aS)-5′-cyclopropyl-9′-methoxy-14a-{[(1-methylcyclopropyl)sulfonyl]carbamoyl}-5,16-dioxo-1,1′,2′,5,6,7,8,9,10,11,13a,14,14a,15,16,16a-hexadecahydrospiro[cyclopropa[e]pyrrolo[1,2-a][1,4]diazacyclopentadecine-2,3′-pyrano[2,3-c]quinolin]-6-yl]carbamate]
pEC50 (HCV genotype 1b replicon; [2]): 8.93 | pIC50 ([1]; K+ salt): 10.54

COc1ccc2nc(C)c3c(c2n1)CC[C@]1(C[C@H]2C(=O)N[C@]4(C(=O)NS(=O)(=O)C5(C)CC5)C[C@H]4/C=C\CCCCC[C@H](NC(=O)OC(C)(C)C(F)(F)F)C(=O)N2C1)O3 [Example 318, 1,1,1-trifluoro-2-methylpropan-2-yl [(2R,6S,12Z,13aS,14aR,16aS)-2′-methoxy-6′-methyl-14a-{[(1-methylcyclopropyl)sulfonyl]carbamoyl}-5,16-dioxo-1,5,6,7,8,9,9′,10,10′,11,13a,14,14a,15,16,16a-hexadecahydrospiro[cyclopropa[e]pyrrolo[1,2-a][1,4]diazacyclopentadecine-2,8′-pyrano[2,3-c][1,5]naphthyridin]-6-yl]carbamate]
pEC50 (HCV genotype 1b replicon; genotype 1b replicon): 8.30 | IC50 [1]: 0.013 nM

Cc1nc2cc(F)c(F)cc2c2c1O[C@]1(CC2)C[C@H]2C(=O)N[C@]3(C(=O)NS(=O)(=O)C4(C)CC4)C[C@H]3/C=C\CCCCC[C@H](NC(=O)OC(C)(C)C)C(=O)N2C1 [Example 188, tert-butyl [(2R,6S,12Z,13aS,14aR,16aS)-8′,9′-difluoro-5′-methyl-14a-{[(1-methylcyclopropyl)sulfonyl]carbamoyl}-5,16-dioxo-1,1′,2′,5,6,7,8,9,10,11,13a,14,14a,15,16,16a-hexadecahydrospiro[cyclopropa[e]pyrrolo[1,2-a][1,4]diazacyclopentadecine-2,3′-pyrano[2,3-c]quinolin]-6-yl]carbamate]
pEC50 (HCV genotype 1b replicon; genotype 1b replicon): 8.41 | IC50 [1]: 0.006 nM
